Measured values reported in US20250270218A1, “IMIDAZ0[1,2-A]PYRIMIDINE-5(1 H)-ONES AS WRN INHIBITORS” (Incyte Corporation, priority 2023, published 2025).

What was measured:
[1] = biological target: T1, WRN (Homo sapiens, UniProt Q14191); assay: WRN Helicase activity assay (fluorescence DNA unwinding); format: biochemical; details: 1-hr pre-incubation with enzyme; 25 nM forked dsDNA, 100 μM ATP, 1 nM WRN; geometric mean of at least 2 replicates
T1 construct: A His-tagged construct of WRN (AA S2-S1235) was produced and used for the ATPase assay; made in house; host or cells: Sf9 insect cells (baculovirus, pFastBac1)
T1 sequence (Q14191 2-1235): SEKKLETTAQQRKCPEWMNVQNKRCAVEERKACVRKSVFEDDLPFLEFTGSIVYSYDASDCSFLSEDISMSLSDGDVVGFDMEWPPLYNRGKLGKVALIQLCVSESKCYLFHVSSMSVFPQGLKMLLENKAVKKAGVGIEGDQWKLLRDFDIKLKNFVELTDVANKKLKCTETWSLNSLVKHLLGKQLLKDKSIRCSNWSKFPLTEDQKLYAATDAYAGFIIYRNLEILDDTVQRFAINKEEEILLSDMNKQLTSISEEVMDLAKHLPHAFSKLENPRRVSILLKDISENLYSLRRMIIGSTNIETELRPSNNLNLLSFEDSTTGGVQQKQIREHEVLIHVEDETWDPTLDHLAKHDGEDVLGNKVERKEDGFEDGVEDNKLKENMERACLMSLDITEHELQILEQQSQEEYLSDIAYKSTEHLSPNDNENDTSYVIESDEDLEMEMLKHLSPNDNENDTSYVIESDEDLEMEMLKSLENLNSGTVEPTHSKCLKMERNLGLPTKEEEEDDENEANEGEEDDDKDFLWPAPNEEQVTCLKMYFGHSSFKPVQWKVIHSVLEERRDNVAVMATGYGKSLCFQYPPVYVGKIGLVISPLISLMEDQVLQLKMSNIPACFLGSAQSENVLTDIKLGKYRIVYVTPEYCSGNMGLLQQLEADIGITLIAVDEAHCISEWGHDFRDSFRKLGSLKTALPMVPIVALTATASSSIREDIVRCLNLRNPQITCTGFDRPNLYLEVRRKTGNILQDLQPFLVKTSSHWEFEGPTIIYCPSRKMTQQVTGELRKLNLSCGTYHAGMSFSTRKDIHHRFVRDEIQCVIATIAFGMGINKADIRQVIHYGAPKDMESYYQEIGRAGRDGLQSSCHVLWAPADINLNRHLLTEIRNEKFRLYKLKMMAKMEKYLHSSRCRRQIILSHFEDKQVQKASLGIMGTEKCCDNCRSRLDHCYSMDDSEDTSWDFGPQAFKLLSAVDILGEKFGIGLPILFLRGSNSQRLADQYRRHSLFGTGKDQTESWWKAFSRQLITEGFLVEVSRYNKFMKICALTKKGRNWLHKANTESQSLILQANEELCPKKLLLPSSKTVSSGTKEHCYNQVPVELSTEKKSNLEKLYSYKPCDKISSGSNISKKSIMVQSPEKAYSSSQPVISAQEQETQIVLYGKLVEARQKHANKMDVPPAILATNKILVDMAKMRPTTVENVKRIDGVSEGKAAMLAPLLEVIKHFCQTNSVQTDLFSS
Protocol: Compounds of the examples were tested for WRN helicase activity. DNA encoding the target protein, 6×HIS-TEV-WRN-517-945, was produced, cloned, and transfected as detailed in Example D. To determine the inhibitory properties of the compounds, a 384 wells plate-based Helicase assay was set up to measure the extent of DNA unwinding (Helicase) activity of WRN. The WRN Helicase assay was designed to measure increase in fluorescence signal using a fluorescence based, donor-quencher paired forked dsDNA oligomer substrate (custom synthesis from Sigma-Aldrich) prepared by annealing equal amounts of oligo GPat-1 ([BHQ2][…]) and oligo GPat-2 ([…][TAM]). Continuous measurement of fluorescent signal was used to optimize the buffer conditions, concentration of enzyme (WRN), concentration of substrates (ATP & dsDNA), and the linearity of the Helicase reaction. All solutions were prepared in the following assay buffer: 50 mM Tris-HCl, pH-7.5, 2 mM MgCl2, 50 mM NaCl, 1 mM EGTA, 0.01% P-20, 0.05% BSA, and 2 mM DTT prepared with nuclease free water.
A serial dilution (1:3 scheme) of the compounds was prepared in neat DMSO and 100 nL of the compounds was dispensed in the Greiner black low volume (Greiner #784076) 384 wells assay plate. A 1-hr pre-incubation of the compounds with enzyme was included. A His-tagged construct of WRN (AA S2-S1235) was produced and used for the ATPase assay. Maximum inhibition control wells were set up with the addition of only assay buffer, and no inhibition control wells were set up with neat DMSO without test compounds. The reaction was initiated by addition of 5 μL substrate mix (200 μM ultrapure ATP, and 50 nM dsDNA prepared in assay buffer) and incubated at 25° C. for 35 min. A typical Helicase reaction consists of 25 nM forked dsDNA, 100 μM ATP, and 1 nM WRN prepared in assay buffer. The WRN Helicase reaction was quenched by the addition of 5 μL ‘STOP’ solution containing 100 mM EDTA (final EDTA concentration 33.33 mM) prepared in assay buffer. The plates were read on BMG PHERAstar FSX using 540/590 module to measure an increase of fluorescence. Data analysis was carried out using the Genedata software following % of control normalization. Fitting parameters include dose response IC50, Hill slope (n), maximum inhibition (S∞), and minimum inhibition (S0). The reported IC50 values for compounds in this invention are the geometric means of at least 2 independent replicates.

[2] = biological target: T1, WRN; assay: WRN ATPase activity assay (ADP-Glo); format: biochemical; details: 1-hr pre-incubation with enzyme; 25 nM forked dsDNA, 100 μM ATP, 1 nM WRN; geometric mean of at least 2 replicates
Protocol: Compounds of the Examples were tested for WRN ATPase activity. WRN ATPase activity catalyzes ATP hydrolysis to produce ADP and phosphate. DNA encoding the target protein, 6×HIS-TEV-WRN-517-945, was produced, cloned, and transfected as detailed in Example D. The amount of ADP produced was measured using ADP-Glo™ Kinase Assay kit from Promega Corporation in a Greiner white regular volume 384 wells assay plate (Greiner #781075). Data was normalized to a standard curve generated using various ADP concentrations and the corresponding luminescent signal intensities at each concentration. The assay conditions were optimized for enzyme concentration (WRN), substrate concentrations (ATP & dsDNA), and the linearity of the ATPase reaction, in the following assay buffer: 50 mM Tris-HCl, pH-7.5, 2 mM MgCl2, 50 mM NaCl, 1 mM EGTA, 0.01% P-20, 0.05% BSA, and 2 mM DTT prepared with nuclease free water.
A serial dilution (1:3 scheme) of the compounds were prepared in neat DMSO, with 100 nL of the compounds dispensed in the 384 wells assay plate. A 1-hr pre-incubation of the compounds with enzyme was included. A His-tagged construct of WRN (AA S2-S1235) was produced and used for the ATPase assay. Maximum inhibition control wells were set up with the addition of only assay buffer, and no inhibition control wells were set up with neat DMSO without test compounds. The reaction was initiated by addition of 5 μL substrate mix (200 μM ultrapure ATP, and 50 nM dsDNA prepared in assay buffer) and incubated at 25° C. for 35 min. A forked dsDNA oligomer substrate was prepared by annealing equal amounts of oligo GPat-1 ([BHQ2][…]) and oligo GPat-2 ([…][TAM]) and was used as dsDNA substrate for WRN ATPase assay. A typical ATPase reaction consists of 25 nM forked dsDNA, 100 μM ATP, and 1 nM WRN prepared in assay buffer. The WRN ATPase reaction was stopped by the addition of 5 μL of ADP-Glo Reagent from ADP-Glo™ Kinase Assay kit and incubated for 40 min to deplete the unreacted ATP. Afterwards, 5 μL of Kinase Detection Reagent from the ADP-Glo™ Kinase Assay kit was added and incubated for 1 hr for the development of luminescence signal.
Luminesce signals were measured on BMG PHERAstar FSX using luminescence protocol. Data analysis was carried out using Genedata software following % of control normalization. Fitting parameters include dose response IC50, Hill slope (n), maximum inhibition (S∞), and minimum inhibition (S0). The reported IC50 values for compounds in this invention are the geometric means of at least 2 independent replicates.

Compound	IC50 [1] [nM]	IC50 [2] [nM]
C=CC(=O)Nc1ccccc1-c1c(CC)n(CC(=O)Nc2ccc(F)cc2Cl)c2nc(C)c(C)n2c1=O [Example 4, N-(2-(8-(2-((2-chloro-4-fluorophenyl)amino)-2-oxoethyl)-7-ethyl-2,3-dimethyl-5-oxo-5,8-dihydroimidazo[1,2-a]pyrimidin-6-yl)phenyl)acrylamide]	100 to 500	100 to 500
C=CC(=O)Nc1ccccc1-c1c(C)nc2n(CC(=O)Nc3ccc(F)cc3)c(CC)c(-c3ccccc3)c(=O)n12 [Example 6, N-(2-(7-Ethyl-8-(2-((4-fluorophenyl)amino)-2-oxoethyl)-2-methyl-5-oxo-6-phenyl-5,8-dihydroimidazo[1,2-a]pyrimidin-3-yl)phenyl)acrylamide]	100 to 500	100 to 500
C=CC(=O)Nc1ccccc1-c1c(C)nc2n(CC(=O)Nc3ccc(C(F)(F)F)cc3)c(CC)c(-c3ccc(C(=O)NCC)cc3)c(=O)n12 [Example 9, 4-(3-(2-Acrylamidophenyl)-7-ethyl-2-methyl-5-oxo-8-(2-oxo-2-((4-(trifluoromethyl)phenyl)amino)ethyl)-5,8-dihydroimidazo[1,2-a]pyrimidin-6-yl)-N-ethylbenzamide]	< 100	< 100
C=CC(=O)Nc1ccccc1-c1c(C)nc2n(CC(=O)Nc3ccc(C(F)(F)F)cc3)c(CC)c(-c3ccc(C(=O)NC)nc3)c(=O)n12 [Example 10, 5-(3-(2-Acrylamidophenyl)-7-ethyl-2-methyl-5-oxo-8-(2-oxo-2-((4-(trifluoromethyl)phenyl)amino)ethyl)-5,8-dihydroimidazo[1,2-a]pyrimidin-6-yl)-N-methylpicolinamide]	< 100	< 100

Further lines, results first:

IC50 [1] [nM]	IC50 [2] [nM]	Compound
100 to 500	100 to 500	C=CC(=O)Nc1ccccc1-c1c(CC)n(CC(=O)Nc2ccc(C(F)(F)F)cc2)c2nc(C)c(C)n2c1=O [Example 1, N-(2-(7-ethyl-2,3-dimethyl-5-oxo-8-(2-oxo-2-((4-(trifluoromethyl)phenyl)amino)ethyl)-5,8-dihydroimidazo[1,2-a]pyrimidin-6-yl)phenyl)acrylamide]
100 to 500	100 to 500	C=CC(=O)Nc1ccccc1-c1c(CC)n(CC(=O)Nc2ccc(C(F)(F)F)cc2)c2nc(-c3ccccc3)cn2c1=O [Example 2, N-(2-(7-Ethyl-5-oxo-8-(2-oxo-2-((4-(trifluoromethyl)phenyl)amino)ethyl)-2-phenyl-5,8-dihydroimidazo[1,2-a]pyrimidin-6-yl)phenyl)acrylamide]
< 100	< 100	C=CC(=O)Nc1ccccc1-c1c(CC)n(CC(=O)Nc2ccc(F)cc2)c2nc(C)c(C)n2c1=O [Example 3, N-(2-(7-Ethyl-8-(2-((4-fluorophenyl)amino)-2-oxoethyl)-2,3-dimethyl-5-oxo-5,8-dihydroimidazo[1,2-a]pyrimidin-6-yl)phenyl)acrylamide]
100 to 500	100 to 500	C=CC(=O)Nc1ccccc1-c1c(CC)n(CC(=O)Nc2ccc(C(F)(F)F)cc2)c2nc(C)c(-c3ccccc3)n2c1=O [Example 5, N-(2-(7-ethyl-2-methyl-5-oxo-8-(2-oxo-2-((4-(trifluoromethyl)phenyl)amino)ethyl)-3-phenyl-5,8-dihydroimidazo[1,2-a]pyrimidin-6-yl)phenyl)acrylamide]
< 100	< 100	C=CS(=O)(=O)Nc1ccccc1-c1c(C)nc2n(CC(=O)Nc3ccc(F)cc3)c(CC)c(-c3ccccc3)c(=O)n12 [Example 7, 2-(7-Ethyl-2-methyl-5-oxo-6-phenyl-3-(2-(vinylsulfonamido)phenyl)imidazo[1,2-a]pyrimidin-8(5H)-yl)-N-(4-fluorophenyl)acetamide]
< 100	< 100	C=CC(=O)Nc1ccccc1-c1c(C)nc2n(CC(=O)Nc3ccc(C(F)(F)F)cc3)c(CC)c(C)c(=O)n12 [Example 8, N-(2-(7-Ethyl-2,6-dimethyl-5-oxo-8-(2-oxo-2-((4-(trifluoromethyl)phenyl)amino)ethyl)-5,8-dihydroimidazo[1,2-a]pyrimidin-3-yl)phenyl)acrylamide]
